Measurements published in ChEMBL document CHEMBL1201862, “PubChem BioAssay data set” (2004).
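Cultured in 96-well plates, cells were exposed to test compound for 48 hours across five concentrations. GI50 = concentration required for 50% inhibition of growth.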 Calls of active or inactive are those of the source. Rule as the data show it: active = GI50 up to about 1.1 µM and inactive = higher.

Assays:
Test in all cases: NCI-60 cell line screen, 48 h
SN12C = tested on: SN12C
OVCAR-3 = tested on: OVCAR-3
NCI-H522 = tested on: NCI-H522
SR = tested on: SR
TK-10 = tested on: TK-10
NCI-H23 = tested on: NCI-H23
RXF 393 = tested on: RXF 393
UACC-62 = tested on: UACC-62
MOLT-4 = tested on: MOLT-4
HOP-18 = tested on: HOP-18
SK-MEL-28 = tested on: SK-MEL-28
COLO 205 = tested on: COLO 205
KM-20L2 = tested on: KM-20L2
K562 = tested on: K562
NCI-H226 = tested on: NCI-H226
HOP-62 = tested on: HOP-62
SNB-19 = tested on: SNB-19
DLD-1 = tested on: DLD-1
SK-MEL-5 = tested on: SK-MEL-5
IGROV-1 = tested on: IGROV-1
XF498 = tested on: XF498
OVCAR-4 = tested on: OVCAR-4
CCRF-CEM = tested on: CCRF-CEM
LXFL 529 = tested on: LXFL 529
M19-MEL = tested on: M19-MEL
SK-OV-3 = tested on: SK-OV-3
SF-539 = tested on: SF-539
SF-268 = tested on: SF-268
UO-31 = tested on: UO-31
HOP-92 = tested on: HOP-92
SNB-78 = tested on: SNB-78
ACHN = tested on: ACHN
U-251 = tested on: U-251
KM12 = tested on: KM12
EKVX = tested on: EKVX
DMS-273 = tested on: DMS-273
SK-MEL-2 = tested on: SK-MEL-2
DMS-114 = tested on: DMS-114
CAKI-1 = tested on: CAKI-1
OVCAR-5 = tested on: OVCAR-5
LOX IMVI = tested on: LOX IMVI
HCT-116 = tested on: HCT-116
RXF 631 = tested on: RXF 631
RPMI-8226 = tested on: RPMI-8226
OVCAR-8 = tested on: OVCAR-8
SF-295 = tested on: SF-295
A549 = tested on: A549
HCT-15 = tested on: HCT-15

Which GI50 (SN12C) does the source give for `COc1cccc(NC(=O)N/C(=C/c2ccc(N(CCC#N)CCC#N)cc2)NC(=O)c2cc([N+](=O)[O-])ccc2Cl)c1` here?
The GI50 was > 100 µM (inactive).

What about the GI50 (OVCAR-3) of the same molecule?
Its GI50 is > 100 µM (inactive).

And the GI50 (NCI-H522)?
Its GI50 is 26.5 µM (inactive).

And the GI50 (SR)?
Its GI50 is 10.1 µM (inactive).

What about the GI50 (TK-10) of the same molecule?
The GI50 was > 100 µM (inactive).

What about the GI50 (NCI-H23) of the same molecule?
The GI50 was > 100 µM (inactive).

What about the GI50 (RXF 393) of the same molecule?
Its GI50 is > 100 µM (inactive).

What about the GI50 (UACC-62) of the same molecule?
The GI50 was 89.3 µM (inactive).

And the GI50 (MOLT-4)?
The GI50 was 35 µM (inactive).

What about the GI50 (HOP-18) of the same molecule?
The GI50 was > 100 µM (inactive).

And the GI50 (SK-MEL-28)?
The GI50 was 64 µM (inactive).

And the GI50 (COLO 205)?
Its GI50 is > 100 µM (inactive).

And the GI50 (KM-20L2)?
The GI50 was > 100 µM (inactive).

What about the GI50 (K562) of the same molecule?
The GI50 was > 100 µM (inactive).

What about the GI50 (NCI-H226) of the same molecule?
Its GI50 is > 100 µM (inactive).

What about the GI50 (HOP-62) of the same molecule?
Its GI50 is > 100 µM (inactive).

And the GI50 (SNB-19)?
Its GI50 is > 100 µM (inactive).

What about the GI50 (DLD-1) of the same molecule?
The GI50 was 89.5 µM (inactive).

What about the GI50 (SK-MEL-5) of the same molecule?
Its GI50 is > 100 µM (inactive).

What about the GI50 (IGROV-1) of the same molecule?
Its GI50 is > 100 µM (inactive).

What about the GI50 (XF498) of the same molecule?
Its GI50 is > 100 µM (inactive).

And the GI50 (OVCAR-4)?
Its GI50 is > 100 µM (inactive).

What about the GI50 (CCRF-CEM) of the same molecule?
Its GI50 is 77.8 µM (inactive).

What about the GI50 (LXFL 529) of the same molecule?
The GI50 was > 100 µM (inactive).

What about the GI50 (M19-MEL) of the same molecule?
Its GI50 is > 100 µM (inactive).

What about the GI50 (SK-OV-3) of the same molecule?
Its GI50 is > 100 µM (inactive).

What about the GI50 (SF-539) of the same molecule?
The GI50 was > 100 µM (inactive).

What about the GI50 (SF-268) of the same molecule?
The GI50 was > 100 µM (inactive).

And the GI50 (UO-31)?
The GI50 was > 100 µM (inactive).

And the GI50 (HOP-92)?
The GI50 was > 100 µM (inactive).

And the GI50 (SNB-78)?
The GI50 was > 100 µM (inactive).

And the GI50 (ACHN)?
Its GI50 is > 100 µM (inactive).

And the GI50 (U-251)?
The GI50 was > 100 µM (inactive).

And the GI50 (KM12)?
The GI50 was > 100 µM (inactive).

And the GI50 (EKVX)?
Its GI50 is > 100 µM (inactive).

What about the GI50 (DMS-273) of the same molecule?
Its GI50 is > 100 µM (inactive).

What about the GI50 (SK-MEL-2) of the same molecule?
Its GI50 is > 100 µM (inactive).

What about the GI50 (DMS-114) of the same molecule?
Its GI50 is 37.2 µM (inactive).

And the GI50 (CAKI-1)?
Its GI50 is > 100 µM (inactive).

What about the GI50 (OVCAR-5) of the same molecule?
The GI50 was > 100 µM (inactive).

What about the GI50 (LOX IMVI) of the same molecule?
Its GI50 is 71.4 µM (inactive).

And the GI50 (HCT-116)?
The GI50 was > 100 µM (inactive).

What about the GI50 (RXF 631) of the same molecule?
The GI50 was > 100 µM (inactive).

And the GI50 (RPMI-8226)?
The GI50 was 51.6 µM (inactive).

What about the GI50 (OVCAR-8) of the same molecule?
The GI50 was > 100 µM (inactive).

What about the GI50 (SF-295) of the same molecule?
Its GI50 is > 100 µM (inactive).

And the GI50 (A549)?
Its GI50 is > 100 µM (inactive).

What about the GI50 (HCT-15) of the same molecule?
The GI50 was 95.5 µM.
